Laboratory results taken from patent US11129807B2, “Methods of treating schizophrenia” (Sunovion Pharmaceuticals Inc., priority 2017, dated 2021).

Key:
[1] = system: patients with an acute exacerbation of schizophrenia (PANSS symptom factors); assay: Pooled 6-week placebo-controlled lurasidone studies in acute schizophrenia (PANSS Analysis Study): effect sizes on Marder and transformed PANSS factors; assay type: in vivo, human; conditions: FIG. 3B, given as r=
Method: Profile of active drug effects on schizophrenia symptom domains. In the left panel of FIG. 3B, shown are lurasidone vs placebo effect sizes (with 95% CI) for change from baseline at week 6 endpoint, based on the Marder PANSS factors. In the right panel of FIG. 3B, the same lurasidone vs placebo effect sizes at endpoint are shown based on the transformed PANSS factors. Drug effects were constructed using a pool of all lurasidone doses (40, 80, 120, or 160 mg/day, total N=993) and excluded active comparators (olanzapine, quetiapine-XR). To examine placebo effects on PANSS factors, placebo treated patients (N=484) were pooled across all studies. Transformed PANSS factors were calculated using the coefficients of the score matrix (see FIG. 4 and Table 4A).
The analysis sample consisted of PANSS data derived from 5 similarly-designed, randomized, double-blind, placebo-controlled, 6-week treatment studies of lurasidone or active comparator for the treatment of patients with an acute exacerbation of schizophrenia. Patients (N=1,710) were included in this analysis if they had received at least one dose of study drug, and had at least one post-baseline PANSS assessment. The analysis pooled all lurasidone doses (40, 80, 120, or 160 mg/d, total N=993), and excluded active comparators (olanzapine, quetiapine-XR). To examine placebo effects on PANSS factors, placebo treated patients (N=484) were pooled across all studies. Herein also referred to as the “PANSS Analysis Study.”
The Uncorrelated PANSS Score Matrix (UPSM) of FIG. 4 and Table 4A was derived using PROC FACTOR procedure of SAS 9.4 with maximum likelihood method (maximum likelihood factor analysis), rotated using the varimax algorithm and compensated for communality greater than 1 using Heywood criteria without a limit on the number of factors produced. A last observation carried forward (LOCF) data imputation method was applied for missing post-baseline PANSS assessments.
The ratings of 30 items in the PANSS data of the PANSS Analysis Study were transformed to transformed PANSS factor scores using a score matrix identified by the maximum likelihood method factor analysis conducted on all change from baseline PANSS data from the 5 short-term clinical trials in the pooled analysis sample. The score matrix, also referred to here as the UPSM, consisted of coefficients multiplying the numerical ratings of each PANSS item differentially for each of the factor scores.
The change-from-baseline PANSS data for all patients and all observations N was a matrix of dimensions (N observations×30 items). To increase precision, the score matrix coefficients were determined using all change-from-baseline observations at Weeks 1-6. The resultant score matrix (30 items×7 factors), or UPSM, was used to transform individual PANSS item change scores (without standardization) to reduce the dimensionality into 7-factor values for each PANSS assessment. FIG. 4 and Table 4A summarize the score matrix (UPSM) weights for individual PANSS items used to generate the transformed PANSS factors.
The weighted score matrix transformation was performed on each of the PANSS item baseline-to-endpoint change scores. This transformation yielded 5 transformed PANSS factors that corresponded to the Marder PANSS factors, with two of the factors (negative symptoms and depression/anxiety) further subdivided into sub-factors (corresponding to the symptom sub-domains of: apathy/avolition and deficit of expression; and depression and anxiety, respectively).
The Validation Study data transformed PANSS factors of Example 1 were used to compare treatment effects of an antipsychotic (lurasidone) on established schizophrenia symptom domains with those estimated using Marder PANSS factors.

[2] = system: Pre-pulse Inhibition (PPI) in Mice; assay: Pre-pulse inhibition (PPI) of startle in mice;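 note: plus grades count prepulse intensities with significant PPI increase at P below 0.05 and minus means no change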; assay type: in vivo; conditions: 30 min prior to PPI test, male C57Bl/6J mice, vs. vehicle
Method: (§1) Anti-psychotic like activity of the compounds was evaluated in mice using the PCP hyperactivity and Pre-Pulse Inhibition (PPI) models of schizophrenia.
(§2) Methods: Animals: Male C57Bl/6J mice from Jackson Laboratories (Bar Harbor, Me.) were used. Upon receipt, mice were assigned unique identification numbers (tail marked) and were group housed with 4 mice per cage in OptiMICE ventilated cages. All animals remained housed in groups of four during the remainder of the study. All mice were acclimated to the colony room for at least two weeks prior to testing. During the period of acclimation, mice were examined on a regular basis, handled, and weighed to assure adequate health and suitability. Animals were maintained on a 12/12 light/dark cycle. The room temperature was maintained between 20 and 23° C. with a relative humidity maintained between 30% and 70%. Chow and water were provided ad libitum for the duration of the study. In each test, animals were randomly assigned across treatment groups.
Prepulse Inhibition of Startle: The acoustic startle is an unconditioned reflex response to an external auditory stimulus. Prepulse inhibition of startle (PPI) refers to the reduction in the startle response caused by the presentation of a low-intensity auditory stimulus prior to the startle stimulus. The PPI paradigm is used for the study of schizophrenia and antipsychotic action due to the similarities between the results from human and rodent studies. […] Various psychotomimetic drugs such as PCP can disrupt PPI. In mice, antipsychotic drugs such as clozapine can reverse the disruption of PPI induced by PCP.
Mice were placed in the PPI chambers (Med Associates) for a 5 min session of white noise (70 dB) habituation. After the habituation period the test session was initiated. The session started with a habituation block of 6 presentations of the startle stimulus alone, followed by 10 PPI blocks, each of which consisted of 6 different types of trials. Trial types were: ‘null’ (no stimuli), ‘startle’ (120 dB), ‘startle plus prepulse’ (4, 8 and 12 dB over background noise, i.e., 74, 78 or 82 dB) and ‘prepulse’ (82 dB). Trial types were presented in a random order within each block. Each trial started with a 50 ms stimulus-free period during which baseline movements were recorded. This was followed by a subsequent 20 ms period during which the prepulse stimulus was presented and responses to the prepulse measured. After a further 100 ms period, the startle stimulus was presented for 40 ms and responses recorded for 100 ms from startle onset. Responses were sampled every ms. The inter-trial interval was variable with an average of 15 s (range from 10 to 20 s). In ‘startle’ trials the basic auditory startle response was measured. The basic startle response was calculated as the mean startle response of all ‘startle’ trials (i.e., excluding the first habituation block). In ‘startle plus prepulse’ trials the degree of inhibition of the normal startle was calculated and expressed as a percentage of the basic startle response.
Mice were treated with vehicle, haloperidol (1 mg/kg; i.p) or test compound 30 min prior to PPI test. The PPI enclosures were cleaned following each test.

[3] = system: PCP-Induced Hyperactivity Responses in Mice; assay: PCP-induced hyperactivity (open field) in mice;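 note: plus means significant inhibition of PCP hyperactivity at P below 0.05 and minus means none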; assay type: in vivo; conditions: male C57Bl/6J mice, vs. vehicle + PCP
Method: as §1, §2
The analysis was configured to divide the open field into a center and periphery zone. Distance traveled was measured from horizontal beam breaks as the mouse moved whereas rearing activity was measured from vertical beam breaks.
Mice were injected with vehicle, test compound, or clozapine (1 mg/kg; i.p) and placed in the OF chambers for 30 min measurement of baseline activity. Mice were then injected with either water or PCP (5 mg/kg; i.p) and placed back in the OF chambers for a 60-minute session. At the end of each OF test session the OF chambers were thoroughly cleaned.

[4] = 0.3 mg/kg Compound + PCP (5 mg/kg; i.p)
[5] = 1 mg/kg Compound + PCP (5 mg/kg; i.p)
[6] = 3 mg/kg Compound + PCP (5 mg/kg; i.p)
[7] = 10 mg/kg Compound + PCP (5 mg/kg; i.p)
[8] = 30 mg/kg Compound + PCP (5 mg/kg; i.p)
[9] = 100 mg/kg Compound + PCP (5 mg/kg; i.p)

SMILES | Effect on Pre-pulse Inhibition (PPI) ([2]; 3 mg/kg) | Effect on Pre-pulse Inhibition (PPI) ([2]; 10 mg/kg) | Effect on Pre-pulse Inhibition (PPI) ([2]; 30 mg/kg) | Total Distance Traveled (cm) [3, 4] | Total Distance Traveled (cm) [3, 5] | Total Distance Traveled (cm) [3, 6] | Total Distance Traveled (cm) [3, 7] | Total Distance Traveled (cm) [3, 8] | Effect on Pre-pulse Inhibition (PPI) ([2]; 100 mg/kg) | other results
O=C1[C@@H]2[C@H]3CC[C@H](C3)[C@@H]2C(=O)N1C[C@@H]1CCCC[C@H]1CN1CCN(c2nsc3ccccc23)CC1 [lurasidone] |  |  |  |  |  |  |  |  |  | effect size, Marder negative symptom factor ([1]; change score): 0.35; effect size, transformed PANSS negative symptoms deficit of expression ([1]; change score): 0.04; effect size, transformed PANSS negative symptoms of apathy/avolition ([1]; change score): 0.22; effect size, Marder PANSS disorganized factor change score [1]: 0.48; effect size, Marder PANSS factor change score compared with transformed anxiety factor [1]: 0.38; effect size, Marder PANSS factor change score compared with transformed depression factor [1]: 0.38; effect size, Marder PANSS hostility factor change score [1]: 0.43; effect size, Marder PANSS positive factor change score [1]: 0.59; effect size, transformed PANSS anxiety factor change score [1]: 0.24; effect size, transformed PANSS depression factor change score [1]: 0.16; effect size, transformed PANSS disorganized factor change score [1]: 0.23; effect size, transformed PANSS hostility factor change score [1]: 0.31; effect size, transformed PANSS positive factor change score [1]: 0.45
C[C@H](N)[C@@H]1OCCc2ccsc21 [Compound 213] | − | +++ | +++ | + | + | + | + | + |  | 
c1cc2c(s1)CCO[C@H]2[C@H]1CCCN1 [Compound 102] | − | − | − | − | + | + | + | + |  | 
[2H]C([2H])([2H])NC[C@H]1OCCc2sccc21 [Compound 158] | − | − | − |  | + | + | + | + | +++ | Total Distance Traveled (cm) [3, 9]: +
CNC[C@H]1OCCc2c(C)csc21 [Compound 172] | − | − | − | − | + | + | − | − | − | 
CNCC1OCCc2sccc21 (centres unmarked) [Compound 4] |  | +++ | − | + | + | + | + | + | +++ | Total Distance Traveled (cm) [3, 9]: +
CNC[C@H]1OCCc2scc(C)c21 [Compound 131] | − | − | − | − | + | + |  |  |  | 
